How the values were obtained:
[1] = molecular target: T1, Peroxisome proliferator-activated receptor gamma (Homo sapiens) (UniProt P37231); experiment: Agonist activity at human PPARgamma expressed in Escherichia coli BL21 assessed as stimulation of binding between receptor and steroid receptor coactivator-1 by ELISA
T1 sequence (whole entry): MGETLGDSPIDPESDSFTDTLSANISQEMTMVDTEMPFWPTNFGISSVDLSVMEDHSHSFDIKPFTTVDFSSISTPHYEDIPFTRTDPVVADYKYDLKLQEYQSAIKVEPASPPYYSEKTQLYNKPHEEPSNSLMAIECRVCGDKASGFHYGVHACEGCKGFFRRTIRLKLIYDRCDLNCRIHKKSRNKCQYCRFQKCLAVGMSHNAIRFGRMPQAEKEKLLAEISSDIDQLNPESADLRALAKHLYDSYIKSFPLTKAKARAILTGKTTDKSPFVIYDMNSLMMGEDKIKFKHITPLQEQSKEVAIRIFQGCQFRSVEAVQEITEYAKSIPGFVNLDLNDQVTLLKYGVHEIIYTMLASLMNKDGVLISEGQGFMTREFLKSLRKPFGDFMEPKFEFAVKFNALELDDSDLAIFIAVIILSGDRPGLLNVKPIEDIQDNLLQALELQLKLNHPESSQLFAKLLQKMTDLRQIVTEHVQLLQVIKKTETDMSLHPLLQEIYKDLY

[2] = molecular target: T1, Peroxisome proliferator-activated receptor gamma (Homo sapiens); experiment: Agonist activity at human PPARgamma expressed in Escherichia coli BL21 assessed as stimulation of binding between receptor and steroid receptor coactivator-1 at 320 uM by ELISA relative to untreated control
[3] = molecular target: T1, Peroxisome proliferator-activated receptor gamma (Homo sapiens); experiment: Binding affinity to human PPARgamma expressed in Escherichia coli BL21 assessed as binding constant by fluorescence quenching assay
[4] = system: HeLa; experiment: Cytotoxicity against human HeLa cells after 48 hrs by MTT assay; assay type: functional, cell-based
[5] = system: MCF7; experiment: Cytotoxicity against human MCF7 cells after 48 hrs by MTT assay; assay type: functional, cell-based; conditions: MCF7, 48 h
[6] = system: MDA-MB-231; experiment: Cytotoxicity against human MDA-MB-231 cells after 48 hrs by MTT assay; assay type: functional, cell-based; conditions: MDA-MB-231, 48 h
[7] = system: PC-3; experiment: Cytotoxicity against human PC3 cells after 48 hrs by MTT assay; assay type: functional, cell-based; conditions: PC-3, 48 h
[8] = system: A549; experiment: Cytotoxicity against human A549 cells after 48 hrs by MTT assay; assay type: functional, cell-based; conditions: A549, 48 h

Structure (SMILES)	Activity [1]	fold change (FC) [2]	K [3] [×10⁵ /M]	IC50 [4] [µM]	IC50 [5] [µM]	IC50 [6] [µM]	IC50 [7] [µM]	IC50 [8] [µM]
O=c1c(O)c(-c2ccccc2)oc2ccc(O)cc12	Dose-dependent effect	7	2.36	12.5	> 100	> 100	50	100
COc1ccc2c(c1)c(CC(=O)O)c(C)n2C(=O)c1ccc(Cl)cc1 [INDOMETHACIN]	–	2	3.39	50	> 100	> 100	> 100	> 100

From ChEMBL document CHEMBL1177747, “Cytotoxic flavonoids as agonists of peroxisome proliferator-activated receptor gamma on human cervical and prostate cancer cells” (J Nat Prod, 2010)
